Tests used:
[1] = biological target: Cyclin-dependent kinase 2 (Homo sapiens, UniProt P24941); experiment: Selectivity interaction (KinomeScan (DiscoverX)) EUB0000045b CDK2
[2] = biological target: T1, Serine/threonine-protein kinase haspin (Homo sapiens) (UniProt Q8TF76); experiment: Selectivity interaction (KinomeScan (DiscoverX)) EUB0000666a GSG2; details: at 10 µM
T1 sequence (whole entry): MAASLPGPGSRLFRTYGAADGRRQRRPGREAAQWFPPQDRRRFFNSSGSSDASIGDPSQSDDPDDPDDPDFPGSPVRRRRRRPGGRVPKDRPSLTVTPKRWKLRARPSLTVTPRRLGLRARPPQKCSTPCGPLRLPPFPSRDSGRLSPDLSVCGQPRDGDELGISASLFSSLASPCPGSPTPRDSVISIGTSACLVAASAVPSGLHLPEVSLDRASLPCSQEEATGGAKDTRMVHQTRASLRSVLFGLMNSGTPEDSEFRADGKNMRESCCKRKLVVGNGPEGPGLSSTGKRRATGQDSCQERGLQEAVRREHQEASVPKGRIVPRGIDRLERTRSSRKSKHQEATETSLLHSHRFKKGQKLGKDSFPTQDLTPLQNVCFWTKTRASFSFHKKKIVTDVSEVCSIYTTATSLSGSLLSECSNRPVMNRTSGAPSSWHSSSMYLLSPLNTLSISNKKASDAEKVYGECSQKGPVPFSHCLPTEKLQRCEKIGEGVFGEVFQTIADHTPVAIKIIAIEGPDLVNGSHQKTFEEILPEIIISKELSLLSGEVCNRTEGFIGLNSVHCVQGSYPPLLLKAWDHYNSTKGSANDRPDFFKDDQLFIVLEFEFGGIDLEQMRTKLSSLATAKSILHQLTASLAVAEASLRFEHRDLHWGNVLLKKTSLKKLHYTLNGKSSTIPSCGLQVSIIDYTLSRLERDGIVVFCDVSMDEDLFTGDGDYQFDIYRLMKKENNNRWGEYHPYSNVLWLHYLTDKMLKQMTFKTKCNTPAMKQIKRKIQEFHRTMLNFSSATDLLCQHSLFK

[3] = biological target: Serine/threonine-protein kinase 26 (Homo sapiens, UniProt Q9P289); details: at 10 µM
[4] = biological target: Serine/threonine-protein kinase 33 (Homo sapiens) (UniProt Q9BYT3); experiment: Selectivity interaction (ProQinase) EUB0000171b STK33
[5] = biological target: MAP kinase-activated protein kinase 3 (Homo sapiens) (UniProt Q16644); experiment: Selectivity interaction (SelectScreen profiling (Invitrogen)) EUB0000607a MAPKAPK3; details: at 2 µM
[6] = biological target: Vascular endothelial growth factor receptor 3 (Homo sapiens, UniProt P35916); experiment: Selectivity interaction (SelectScreen profiling (Invitrogen)) EUB0000607a FLT4; details: at 2 µM
[7] = biological target: T2, Protein kinase C iota type (Homo sapiens) (UniProt P41743); experiment: Selectivity interaction (SelectScreen profiling (Invitrogen)) EUB0000607a PRKCI; details: at 2 µM
T2 sequence (whole entry): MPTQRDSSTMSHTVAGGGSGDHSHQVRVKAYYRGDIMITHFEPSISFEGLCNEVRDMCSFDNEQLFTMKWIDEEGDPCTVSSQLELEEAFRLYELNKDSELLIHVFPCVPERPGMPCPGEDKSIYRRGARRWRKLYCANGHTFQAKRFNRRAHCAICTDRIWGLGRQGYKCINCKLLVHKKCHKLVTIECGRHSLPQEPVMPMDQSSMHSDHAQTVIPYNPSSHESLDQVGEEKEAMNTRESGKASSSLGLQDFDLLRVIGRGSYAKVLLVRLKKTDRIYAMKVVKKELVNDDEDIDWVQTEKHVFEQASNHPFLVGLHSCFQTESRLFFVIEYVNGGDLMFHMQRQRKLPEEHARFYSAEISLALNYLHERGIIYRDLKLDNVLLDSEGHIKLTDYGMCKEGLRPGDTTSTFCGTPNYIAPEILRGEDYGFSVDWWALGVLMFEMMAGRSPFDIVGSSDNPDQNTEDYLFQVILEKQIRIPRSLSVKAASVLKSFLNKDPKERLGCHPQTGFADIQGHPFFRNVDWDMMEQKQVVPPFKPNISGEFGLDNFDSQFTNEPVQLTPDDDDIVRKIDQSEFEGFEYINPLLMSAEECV

[8] = test system: eIF-2-alpha kinase GCN2 (Homo sapiens), Q9P2K8 [S808G]; experiment: Selectivity interaction (KinomeScan (DiscoverX)) EUB0000618a EIF2AK4; details: at 10 µM
[9] = biological target: Phosphatidylinositol 4-phosphate 3-kinase C2 domain-containing subunit beta (Homo sapiens) (UniProt O00750); experiment: Selectivity interaction (KinomeScan (DiscoverX)) EUB0000618a PIK3C2B; details: at 10 µM
[10] = biological target: Cyclin-dependent kinase 17 (Homo sapiens) (UniProt Q00537); experiment: Selectivity interaction (ActivX KiNativ screen (kinase selectivity in THP-1 cell lysates)) EUB0000639a CDK17; assay type: subcellular; details: lysate, at 0.04 µM
[11] = biological target: Serine/threonine-protein kinase PRP4 homolog (Homo sapiens) (UniProt Q13523); experiment: Selectivity interaction (ActivX KiNativ screen (kinase selectivity in THP-1 cell lysates)) EUB0000639a PRPF4; assay type: subcellular; details: lysate, at 1 µM
[12] = biological target: T3, Mitogen-activated protein kinase 15 (Homo sapiens) (UniProt Q8TD08); details: at 10 µM
T3 sequence (whole entry): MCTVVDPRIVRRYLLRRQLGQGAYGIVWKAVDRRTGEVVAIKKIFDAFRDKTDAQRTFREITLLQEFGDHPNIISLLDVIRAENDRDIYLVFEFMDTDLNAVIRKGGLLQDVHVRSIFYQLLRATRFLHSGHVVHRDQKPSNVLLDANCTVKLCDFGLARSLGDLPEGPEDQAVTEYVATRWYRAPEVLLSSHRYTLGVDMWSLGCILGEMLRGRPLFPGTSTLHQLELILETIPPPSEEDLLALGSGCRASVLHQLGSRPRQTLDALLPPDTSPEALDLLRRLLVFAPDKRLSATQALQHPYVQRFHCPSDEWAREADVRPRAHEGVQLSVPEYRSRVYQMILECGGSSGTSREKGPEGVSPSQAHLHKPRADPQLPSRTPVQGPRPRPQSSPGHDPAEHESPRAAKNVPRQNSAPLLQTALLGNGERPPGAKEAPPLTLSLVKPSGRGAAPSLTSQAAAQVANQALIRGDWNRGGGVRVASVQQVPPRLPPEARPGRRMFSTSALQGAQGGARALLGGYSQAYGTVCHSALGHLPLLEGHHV

Sequence of Serine/threonine-protein kinase 33 (Homo sapiens) (Q9BYT3 whole entry, looked up): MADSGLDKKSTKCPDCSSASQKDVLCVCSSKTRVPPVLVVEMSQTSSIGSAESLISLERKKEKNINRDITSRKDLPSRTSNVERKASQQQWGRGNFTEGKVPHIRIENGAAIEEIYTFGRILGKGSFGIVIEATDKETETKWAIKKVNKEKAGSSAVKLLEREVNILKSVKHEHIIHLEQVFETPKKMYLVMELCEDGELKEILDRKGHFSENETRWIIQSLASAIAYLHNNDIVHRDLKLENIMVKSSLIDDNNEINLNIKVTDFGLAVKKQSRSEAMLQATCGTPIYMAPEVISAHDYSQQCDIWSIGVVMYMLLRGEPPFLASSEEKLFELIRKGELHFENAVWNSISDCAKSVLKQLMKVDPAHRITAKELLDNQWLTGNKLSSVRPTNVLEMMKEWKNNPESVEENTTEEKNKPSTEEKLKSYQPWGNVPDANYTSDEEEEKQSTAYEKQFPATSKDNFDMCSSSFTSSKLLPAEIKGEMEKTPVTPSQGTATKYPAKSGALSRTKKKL
Sequence of Vascular endothelial growth factor receptor 3 (P35916 whole entry): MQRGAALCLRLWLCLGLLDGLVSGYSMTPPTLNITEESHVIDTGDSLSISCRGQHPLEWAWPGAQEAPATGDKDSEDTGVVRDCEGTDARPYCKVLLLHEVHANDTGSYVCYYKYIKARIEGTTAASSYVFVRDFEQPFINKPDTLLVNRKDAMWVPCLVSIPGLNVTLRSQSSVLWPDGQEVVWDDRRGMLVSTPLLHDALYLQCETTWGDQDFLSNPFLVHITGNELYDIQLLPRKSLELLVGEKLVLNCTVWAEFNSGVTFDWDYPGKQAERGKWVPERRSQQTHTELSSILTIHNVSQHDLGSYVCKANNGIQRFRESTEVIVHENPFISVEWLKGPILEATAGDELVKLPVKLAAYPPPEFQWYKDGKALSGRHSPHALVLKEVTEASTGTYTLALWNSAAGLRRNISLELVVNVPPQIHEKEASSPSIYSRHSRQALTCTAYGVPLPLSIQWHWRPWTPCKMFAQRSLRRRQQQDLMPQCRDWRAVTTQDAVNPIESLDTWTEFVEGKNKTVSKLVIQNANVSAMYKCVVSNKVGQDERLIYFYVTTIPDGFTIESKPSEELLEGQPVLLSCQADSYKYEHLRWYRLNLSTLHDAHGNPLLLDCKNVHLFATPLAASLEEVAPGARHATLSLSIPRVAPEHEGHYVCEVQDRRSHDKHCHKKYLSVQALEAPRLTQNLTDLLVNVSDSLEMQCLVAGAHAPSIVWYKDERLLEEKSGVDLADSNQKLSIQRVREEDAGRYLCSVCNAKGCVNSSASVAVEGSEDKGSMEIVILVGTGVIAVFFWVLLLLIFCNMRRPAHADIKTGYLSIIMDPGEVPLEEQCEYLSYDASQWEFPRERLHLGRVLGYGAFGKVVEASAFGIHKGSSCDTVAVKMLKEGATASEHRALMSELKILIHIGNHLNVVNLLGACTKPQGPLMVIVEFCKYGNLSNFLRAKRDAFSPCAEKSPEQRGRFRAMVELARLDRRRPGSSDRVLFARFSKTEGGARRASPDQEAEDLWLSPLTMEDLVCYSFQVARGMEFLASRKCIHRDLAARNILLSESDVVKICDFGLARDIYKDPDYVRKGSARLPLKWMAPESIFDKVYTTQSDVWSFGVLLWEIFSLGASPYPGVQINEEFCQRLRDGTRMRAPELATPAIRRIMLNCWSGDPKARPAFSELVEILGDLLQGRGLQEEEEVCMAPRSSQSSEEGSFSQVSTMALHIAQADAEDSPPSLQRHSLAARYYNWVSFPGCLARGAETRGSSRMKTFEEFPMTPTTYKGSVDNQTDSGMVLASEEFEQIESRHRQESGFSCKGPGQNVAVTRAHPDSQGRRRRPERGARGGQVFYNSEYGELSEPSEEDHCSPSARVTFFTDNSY
Sequence of eIF-2-alpha kinase GCN2 (Homo sapiens), Q9P2K8 [S808G] (Q9P2K8 whole entry S808G, the tested form may be a part): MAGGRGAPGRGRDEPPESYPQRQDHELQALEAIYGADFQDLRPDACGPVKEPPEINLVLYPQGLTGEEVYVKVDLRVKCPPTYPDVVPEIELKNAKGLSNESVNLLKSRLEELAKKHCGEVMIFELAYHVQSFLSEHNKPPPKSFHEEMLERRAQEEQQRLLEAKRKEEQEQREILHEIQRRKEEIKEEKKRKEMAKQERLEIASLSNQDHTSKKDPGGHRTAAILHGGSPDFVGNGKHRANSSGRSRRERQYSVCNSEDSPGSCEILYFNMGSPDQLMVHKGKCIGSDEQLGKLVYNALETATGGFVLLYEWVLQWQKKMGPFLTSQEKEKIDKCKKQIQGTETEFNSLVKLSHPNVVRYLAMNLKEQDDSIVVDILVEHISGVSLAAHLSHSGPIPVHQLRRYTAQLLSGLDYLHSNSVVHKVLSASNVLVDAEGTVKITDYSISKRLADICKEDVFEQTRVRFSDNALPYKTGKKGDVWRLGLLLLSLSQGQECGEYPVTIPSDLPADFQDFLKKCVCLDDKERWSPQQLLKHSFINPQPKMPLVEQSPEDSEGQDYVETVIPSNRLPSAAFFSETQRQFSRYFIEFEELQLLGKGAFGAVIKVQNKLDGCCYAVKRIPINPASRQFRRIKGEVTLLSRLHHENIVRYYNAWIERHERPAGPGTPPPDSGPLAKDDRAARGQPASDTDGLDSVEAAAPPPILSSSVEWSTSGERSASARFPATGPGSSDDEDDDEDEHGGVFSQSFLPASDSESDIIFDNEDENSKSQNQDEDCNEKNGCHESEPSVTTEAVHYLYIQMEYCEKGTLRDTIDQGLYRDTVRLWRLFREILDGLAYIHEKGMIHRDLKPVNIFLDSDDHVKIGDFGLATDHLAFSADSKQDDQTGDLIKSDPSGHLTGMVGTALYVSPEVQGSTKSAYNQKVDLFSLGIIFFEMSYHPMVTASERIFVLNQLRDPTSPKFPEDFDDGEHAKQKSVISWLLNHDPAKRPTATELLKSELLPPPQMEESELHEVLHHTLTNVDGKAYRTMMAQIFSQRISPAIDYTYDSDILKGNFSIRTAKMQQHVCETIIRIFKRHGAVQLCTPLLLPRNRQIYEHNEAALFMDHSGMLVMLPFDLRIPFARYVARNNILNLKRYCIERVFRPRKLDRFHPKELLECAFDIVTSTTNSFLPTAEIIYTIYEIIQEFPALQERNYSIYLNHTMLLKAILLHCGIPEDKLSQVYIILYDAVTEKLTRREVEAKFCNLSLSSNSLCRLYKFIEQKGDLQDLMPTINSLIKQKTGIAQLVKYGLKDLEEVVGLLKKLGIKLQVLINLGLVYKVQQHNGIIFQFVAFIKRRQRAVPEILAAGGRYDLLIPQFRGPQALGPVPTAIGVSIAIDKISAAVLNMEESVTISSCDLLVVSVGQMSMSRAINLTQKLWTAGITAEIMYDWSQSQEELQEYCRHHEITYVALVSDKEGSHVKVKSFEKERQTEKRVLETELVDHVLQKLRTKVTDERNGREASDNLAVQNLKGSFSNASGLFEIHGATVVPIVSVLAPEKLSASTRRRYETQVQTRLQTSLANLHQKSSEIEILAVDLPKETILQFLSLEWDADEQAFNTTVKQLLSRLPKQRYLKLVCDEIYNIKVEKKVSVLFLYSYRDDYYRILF
Sequence of Cyclin-dependent kinase 17 (Homo sapiens) (Q00537 whole entry, looked up): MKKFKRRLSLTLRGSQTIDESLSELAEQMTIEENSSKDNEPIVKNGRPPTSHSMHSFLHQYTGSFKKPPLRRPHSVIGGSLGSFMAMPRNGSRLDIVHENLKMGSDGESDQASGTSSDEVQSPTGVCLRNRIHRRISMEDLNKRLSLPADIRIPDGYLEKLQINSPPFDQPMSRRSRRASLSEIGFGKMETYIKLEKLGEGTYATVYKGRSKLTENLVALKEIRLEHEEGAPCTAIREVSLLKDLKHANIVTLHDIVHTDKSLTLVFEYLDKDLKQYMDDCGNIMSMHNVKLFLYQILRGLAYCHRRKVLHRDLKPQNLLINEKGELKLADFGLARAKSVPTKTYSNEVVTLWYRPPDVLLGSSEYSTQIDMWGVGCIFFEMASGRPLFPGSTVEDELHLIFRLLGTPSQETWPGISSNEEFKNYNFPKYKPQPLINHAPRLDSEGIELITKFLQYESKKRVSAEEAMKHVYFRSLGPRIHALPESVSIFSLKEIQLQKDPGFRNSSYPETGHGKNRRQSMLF
Sequence of MAP kinase-activated protein kinase 3 (Homo sapiens) (Q16644 whole entry, looked up): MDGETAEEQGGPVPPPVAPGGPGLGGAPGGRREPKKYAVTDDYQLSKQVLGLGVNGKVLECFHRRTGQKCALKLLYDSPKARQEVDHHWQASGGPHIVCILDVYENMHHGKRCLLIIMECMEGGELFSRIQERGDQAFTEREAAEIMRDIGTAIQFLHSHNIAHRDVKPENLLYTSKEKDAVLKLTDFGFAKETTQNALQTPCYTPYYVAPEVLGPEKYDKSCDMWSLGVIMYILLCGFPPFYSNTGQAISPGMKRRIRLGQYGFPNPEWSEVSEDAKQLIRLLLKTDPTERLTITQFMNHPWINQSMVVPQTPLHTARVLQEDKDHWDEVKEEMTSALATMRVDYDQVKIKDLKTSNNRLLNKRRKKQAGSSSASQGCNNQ
Sequence of Serine/threonine-protein kinase 26 (Q9P289 2-416 limits assumed): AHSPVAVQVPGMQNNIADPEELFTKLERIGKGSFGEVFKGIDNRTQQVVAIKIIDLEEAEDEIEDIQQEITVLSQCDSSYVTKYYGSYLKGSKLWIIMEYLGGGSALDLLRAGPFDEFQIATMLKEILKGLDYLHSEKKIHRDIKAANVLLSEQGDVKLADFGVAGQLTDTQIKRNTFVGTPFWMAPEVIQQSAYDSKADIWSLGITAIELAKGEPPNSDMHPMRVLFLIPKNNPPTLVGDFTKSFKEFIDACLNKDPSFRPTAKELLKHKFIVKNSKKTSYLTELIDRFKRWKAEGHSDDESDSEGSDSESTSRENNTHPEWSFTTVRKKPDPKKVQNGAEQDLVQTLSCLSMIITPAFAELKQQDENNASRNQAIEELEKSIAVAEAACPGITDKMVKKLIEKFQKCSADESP

C=CC(=O)Nc1cc(-n2c(=O)ccc3cnc4ccc(-c5ccc(NS(C)(=O)=O)cc5)cc4c32)ccc1C
% of control ([1]; at 1 µM): 95%
% of control ([1]; at 10 µM): 100%

O=C(NOC[C@H](O)CO)c1ccc(F)c(F)c1Nc1ccc(I)cc1F
% of control [2]: 100%

Cc1cc([C@@H](C)Nc2ccccc2C(=O)O)c2nc(N3CCOCC3)cc(=O)n2c1 [AZD-6482]
% of control [3]: 100%

C=CC(=O)Nc1cccc(C(=O)Nc2ccc(Nc3cc(-c4[nH]c(SC)nc4C)ccn3)cc2)c1
% of control ([4]; at 1 µM): 76%
% of control ([4]; at 5 µM): 71%

CNC(=O)Nc1ccc(-c2nc(N3CC4CCC(C3)O4)c3cnn(C4CCC5(CC4)OCCO5)c3n2)cc1
% of inhibition [5]: 1%
% of inhibition [6]: 4%
% of inhibition [7]: 6%

O[C@H]1CC[C@H](Nc2ncc3nc(Nc4c(F)cc(F)cc4F)n([C@H]4CCOC4)c3n2)CC1
% of control [8]: 100%
% of control [9]: 97%

CC[C@@H]1[C@H](F)C(=O)N[C@@H]1COc1nccc2cc(C(N)=O)c(OC)cc12 [ZIMLOVISERTIB]
% of inhibition [10]: 1.7%
% of inhibition [11]: 67.7%

CCN(CC)CCCCNc1ncc2cc(-c3cc(OC)cc(OC)c3)c(NC(=O)NC(C)(C)C)nc2n1
% of control [12]: 100%

From ChEMBL document CHEMBL5465560, “Selectivity Literature for EUbOPEN Chemogenomic Library” (2024)
